Reference: US20180344854A1, “SUPERSATURATED COMPOSITIONS OF BENZIMIDAZOLE COMPOUNDS” (Faes Farma, S.A., priority 2015, published 2018)
≈ marks a conversion by molar mass, not a printed value.

Assays:
Assay type in all cases: physicochemical
[1] = Solubility of cocrystals in water at room temperature, HPLC area; settings: for Solubility (HPLC area of bilastine), run _1 / Solubility (HPLC area of bilastine), run _2 / solubility on dissolution of cocrystal in water: water; for Solubility (HPLC area of bilastine), run _1 / Solubility (HPLC area of bilastine), run _2: rt; for pH_1 / pH_2: pH of the solution; for solubility on dissolution of cocrystal in water: room temperature, 400 mg in 24 ml
Protocol: 25 μL sample were injected.
Solubility of cocrystals was determined by stirring the product in water at room temperature (400 mg of product in 24 ml of water, 60 vol.). The product was previously milled in order to reduce the crystal size effect. A sample is collected and filtered using a sintered funnel (n° 3) periodically (30, 60, 180 min and after overnight). The filtered solid was immediately analyzed by XRPD, while the mother liquors are filtered through a 0.22 um filter. […] The concentration of Bilastine is determined by HPLC area (in some experiments where a high solubility was detected the mother liquor was diluted by a factor 10). This concentration is compared with the bilastine concentration obtained in the same conditions in order to determine a relative solubility.

[2] = Solubility of bilastine after heating the slurry with acid at 95° C. and cooling (Method 2), HPLC-PDA; settings: for solubility after 24 h: pH 4.3, after 24 h; for solubility at 2 h: aqueous buffer, thermodynamic from solid, pH 4.3, 95° C. 2 h, filtrate stood overnight at room temperature
Protocol: Alternative Method for Determining the Solubility
HPLC-PDA analysis was carried out using a Acquity BEH C18 1.7 μm 100×2.1 mm column at a temperature of 40° C. The isocratic mobile phase was composed of acetonitrile/methanol/ammonium bicarbonate 10 mM pH 8.7 (20.2/24.8/55.0%) (% v/v), at a flow rate of 0.6 mL/min. Samples were centrifuged 10 minutes at 4000 rpm at 20° C., and supernatant diluted to approx. 20-40 μg/mL in water. These diluted samples were kept at 18° C. until analysis. Quantization was performed at 220 nm by area comparison against a calibration curve obtained with bilastine working standard.
Method 2. A slurry of bilastine (100 mg) and the organic carboxylic acid (amount needed to obtain a pH of 4.0-4.5) in water (10 ml) was prepared. The mixture was stirred at 95° C. for 2 h and filtered. The filtrate was cooled to room temperature and allowed to stand overnight.
(§1) Citric acid was added to a slurry of 100 mg of bilastine in 10 mL of water to get a pH of 4.3 and the mixture was heated at 95° C. for 2 h. Then the solid was filtered off and the filtrate was allowed to stand overnight at room temperature. The solid was separated by centrifugation and the concentration of bilastine was determined by HPLC-PDA.
as §1, with “D,L-Tartaric” for “Citric”
as §1, with “Hydrochloric” for “Citric”, “acid 3.7% v/v” for “acid”

[3] = Aqueous solubility of bilastine in the pH range 5-8; settings: water, aqueous buffer
Protocol: The above benzimidazole compounds with selective H1 antihistaminic activity present low solubility in water, which impedes the development of pharmaceutically acceptable means of administering said compounds in liquid form. For example, the solubility of bilastine in the pH range 5-8 is around 500 μg/mL.

Structure (SMILES)	Solubility (HPLC area of bilastine), run _1 ([1]; 0 min)	Solubility (HPLC area of bilastine), run _2 ([1]; 0 min)	Solubility (HPLC area of bilastine), run _1 ([1]; 30 min)	Solubility (HPLC area of bilastine), run _2 ([1]; 30 min)	Solubility (HPLC area of bilastine), run _1 ([1]; 60 min)	Solubility (HPLC area of bilastine), run _2 ([1]; 60 min)	Solubility (HPLC area of bilastine), run _1 ([1]; 180 min)	Solubility (HPLC area of bilastine), run _2 ([1]; 180 min)	Solubility (HPLC area of bilastine), run _1 ([1]; 1080 min)	Solubility (HPLC area of bilastine), run _2 ([1]; 1080 min)	pH_1 ([1]; run 1, 30 min)	pH_1 ([1]; run 1, 60 min)	pH_1 ([1]; run 1, 180 min)	pH_1 ([1]; run 1, 1080 min)	pH_2 ([1]; run 2, 30 min)	pH_2 ([1]; run 2, 60 min)	pH_2 ([1]; run 2, 180 min)	pH_2 ([1]; run 2, 1080 min)	solubility on dissolution of cocrystal in water [1]	also measured
CCOCCn1c(C2CCN(CCc3ccc(C(C)(C)C(=O)O)cc3)CC2)nc2ccccc21.CCOCCn1c(C2CCN(CCc3ccc(C(C)(C)C(=O)O)cc3)CC2)nc2ccccc21.O=C(O)CCCC(=O)O [GL(I)]	0 area counts	0 area counts	49106 area counts	48462 area counts	48363 area counts	48871 area counts	50828 area counts	50771 area counts	48315 area counts	47972 area counts	4.42	4.31	4.08	4.11	4.34	4.3	4.29	3.97	48000 area counts	
CCOCCn1c(C2CCN(CCc3ccc(C(C)(C)C(=O)O)cc3)CC2)nc2ccccc21.CCOCCn1c(C2CCN(CCc3ccc(C(C)(C)C(=O)O)cc3)CC2)nc2ccccc21.O=C(O)CCCC(=O)O [GL(IV)]	0 area counts	0 area counts	61110 area counts	61019 area counts	61558 area counts	61328 area counts	60841 area counts	62159 area counts	48734 area counts	55535 area counts	4.25	4.22	4.06	4.00	4.25	4.22	4.11	3.98	around 60000 area counts	
CCOCCn1c(C2CCN(CCc3ccc(C(C)(C)C(=O)O)cc3)CC2)nc2ccccc21.O=C(O)CCCC(=O)O [GL(V)]	0 area counts	0 area counts	61517 area counts	62303 area counts	60930 area counts	60916 area counts	60628 area counts	61316 area counts	59755 area counts	60769 area counts	4.00	3.99	3.93	3.95	3.97	3.95	3.94	3.97	60000 area counts	
CCOCCn1c(C2CCN(CCc3ccc(C(C)(C)C(=O)O)cc3)CC2)nc2ccccc21 [bilastine, 2-[4-(2-{4-[1-(2-Ethoxyethyl)-1H-benzimidazol-2-yl]-1-piperidinyl}ethyl)phenyl]-2-methylpropanoic acid]																				solubility after 24 h ([2]; citric acid): maintained; concentration of bilastine ([2]; hydrochloric acid (comparative), pH 4.3, compared with the pH-dependent solubility of FIG. 1): in accordance with its pH-dependent solubility; solubility after 24 h ([2]; tartaric acid): maintained; solubility at 2 h ([2]; water acidified with D,L-tartaric acid, D,L-tartaric acid): 2700 µg/mL (≈ 5.82 mM); solubility at 2 h ([2]; water acidified with citric acid, citric acid): 2700 µg/mL (≈ 5.82 mM); solubility [3]: ~500 µg/mL (≈ 1.08 mM)
